From patent US4309554A, “3-(2-Thiophenesulfonyl)-2-halopropanenitriles” (The Dow Chemical Company, priority 1980, dated 1982)
≈ marks a conversion by molar mass, not a printed value.

Assays:
Format in all cases: cell-based
A. aerogenes = experiment: in vitro agar Petri dish dilution test, MIC against A. aerogenes; conditions: Klebsiella aerogenes; A. aerogenes (Aa)
From the text: (§1) The compounds have antimicrobial utility. In conventional in vitro agar Petri dish dilution tests for determining antimicrobial activity, the compounds of the Examples had minimum inhibitory concentrations (MIC) against the indicated organisms in parts per million (ppm) as follows: […]

P. pullulans = experiment: in vitro agar Petri dish dilution test, MIC against P. pullulans; conditions: P. pullulans (Pp)
From the text: as §1

C albicans = experiment: in vitro agar Petri dish dilution test, MIC against C albicans; conditions: C albicans (Ca)
From the text: as §1

Ceratocystis IPS = experiment: in vitro agar Petri dish dilution test, MIC against Ceratocystis IPS; conditions: Ceratocystis IPS (CI)
From the text: as §1

[1] = system: Trichoderm Sp. Madison P42; experiment: in vitro agar Petri dish dilution test, MIC against Trichoderm Sp. Madison P42; conditions: Trichoderm Sp. Madison P42 (Tr 42)
From the text: as §1

B. subtilis = experiment: in vitro agar Petri dish dilution test, MIC against B. subtilis; conditions: Bacillus subtilis; B. subtilis (head Be, footnote Bs)
From the text: as §1

E. coli = experiment: in vitro agar Petri dish dilution test, MIC against E. coli; conditions: Escherichia coli; E. coli (Ec)
From the text: as §1

S. aureus = experiment: in vitro agar Petri dish dilution test, MIC against S. aureus; conditions: Staphylococcus aureus; S. aureus (Sa)
From the text: as §1

T. mentagrophytes = experiment: in vitro agar Petri dish dilution test, MIC against T. mentagrophytes; conditions: Trichophyton mentagrophytes; T. mentagrophytes (Tm)
From the text: as §1

A. niger = experiment: in vitro agar Petri dish dilution test, MIC against A. niger; conditions: Aspergillus niger; A. niger (An)
From the text: as §1

[2] = system: Pseudomonas Sp. Strain 10; experiment: in vitro agar Petri dish dilution test, MIC against Pseudomonas Sp. Strain 10; conditions: Pseudomonas Sp. Strain 10 (Ps 10)
From the text: as §1

C. pelliculosa = experiment: in vitro agar Petri dish dilution test, MIC against C. pelliculosa; conditions: Hansenula anomala; C. pelliculosa (Cp)
From the text: as §1

S. typhosa = experiment: in vitro agar Petri dish dilution test, MIC against S. typhosa; conditions: S. typhosa (St)
From the text: as §1

SMILES	MIC (A. aerogenes) [µg/mL]	MIC (P. pullulans) [µg/mL]	MIC (C albicans) [µg/mL]	MIC (Ceratocystis IPS) [µg/mL]	MIC [1] [µg/mL]	MIC (B. subtilis) [µg/mL]	MIC (E. coli) [µg/mL]	MIC (S. aureus) [µg/mL]	MIC (T. mentagrophytes) [µg/mL]	MIC (A. niger) [µg/mL]	MIC [2] [µg/mL]	MIC (C. pelliculosa) [µg/mL]	MIC (S. typhosa) [µg/mL]
N#CC(Cl)CS(=O)(=O)c1cccs1 (stereo not drawn) [Example 1, 3-(2-Thiophenesulfonyl)-2-chloropropane nitrile]	100 (≈ 424 µM)	10 (≈ 42.4 µM)	10 (≈ 42.4 µM)	100 (≈ 424 µM)	100 (≈ 424 µM)	100 (≈ 424 µM)	100 (≈ 424 µM)	100 (≈ 424 µM)	10 (≈ 42.4 µM)	100 (≈ 424 µM)	100 (≈ 424 µM)	10 (≈ 42.4 µM)	
Cc1ccc(S(=O)(=O)CC(Cl)C#N)s1 (stereo not drawn) [2(a)]	50 (≈ 200 µM)	50 (≈ 200 µM)	50 (≈ 200 µM)	50 (≈ 200 µM)	50 (≈ 200 µM)	10 (≈ 40 µM)		50 (≈ 200 µM)	50 (≈ 200 µM)	50 (≈ 200 µM)	500 (≈ 2000 µM)	50 (≈ 200 µM)	
CCCCc1ccc(S(=O)(=O)CC(Cl)C#N)s1 (stereo not drawn) [2(c)]	500 (≈ 1710 µM)	50 (≈ 171 µM)	50 (≈ 171 µM)	50 (≈ 171 µM)	500 (≈ 1710 µM)	5 (≈ 17.1 µM)	500 (≈ 1710 µM)	5 (≈ 17.1 µM)	50 (≈ 171 µM)	500 (≈ 1710 µM)	500 (≈ 1710 µM)	50 (≈ 171 µM)	
CCc1ccc(S(=O)(=O)CC(Cl)C#N)s1 (stereo not drawn) [2(b)]	100 (≈ 379 µM)	500 (≈ 1900 µM)	500 (≈ 1900 µM)	100 (≈ 379 µM)	500 (≈ 1900 µM)	5 (≈ 19 µM)	50 (≈ 190 µM)	5 (≈ 19 µM)	50 (≈ 190 µM)	500 (≈ 1900 µM)	500 (≈ 1900 µM)	100 (≈ 379 µM)	5 (≈ 19 µM)
